Experimental data: patent publication US6083741A, “Internalisation of DNA, using conjugates of poly-l-lysine and an integrin receptor ligand” (Imperial College of Science Technology and Medicine, priority 1994, dated 2000)

What was measured:
[1] = tested on: COS-7 cells; experiment: Luciferase reporter gene transfection of COS-7 cells; format: cell-based; conditions: 200 μm chloroquine
Method: (§1) 5 μg of a luciferase reporter gene plasmid (pGL2 promega) was complexed with either the RGD-polylysine construct (possible structure of complex is shown in FIG. 1) or an equal concentration of polylysine in 100 μl of Optimem media (Gibco). The DNA/peptide complexes and also a DNA only control were then applied to 50% confluent cultured (Caco-2) colonic epithelial cells which were then allowed to express for 48 hours. The cells were then harvested and the cellular protein analysed for luciferase activity (Relative Light Units). The activity shown in FIG. 2 is adjusted to represent activity from 1 mg of cellular protein. In FIG. 2 the term "RGD peptide" is used to indicate the polylysine-integrin receptor binding protein described in Example 1.
The polylysine-integrin receptor binding peptide of Example 1 was again used. Essentially the methodology of Example 2 was followed with the substitution of COS-7 cells, and the use of different concentrations of chloroquine. It can be seen that 200 μm chloroquine gave a 4-fold increase of expression, compared with no chloroquine.
The methodology of Example 2 was repeated using COS-7 cells. In this experiment, different ratios of the K16 RGD peptide DNA were used with and without 100 μm chloroquine, with the results shown in FIG. 7. It can be seen that the optimum ratio was 37.5:1 in both the absence and presence of chloroquine.

[2] = tested on: (Caco-2) colonic epithelial cells; experiment: Luciferase reporter gene (pGL2) internalisation and expression in Caco-2 cells; format: cell-based; conditions: 5 μg pGL2 plasmid
Method: as §1
The procedure described in Example 2 was repeated but using the polylysine-integrin receptor binding peptide described in Example 3 instead of the polylysine-integrin receptor binding peptide described in Example 1. Control experiments were also performed.
The polylysine-integrin receptor binding peptide of Example 1 was used in a repeat of the procedure of Example 2, but using 1 μg of luciferase reporter gene plasmid. The effect of chloroquine was also investigated.

CCN(CC)CCCC(C)Nc1ccnc2cc(Cl)ccc12 (stereo not drawn) [chloroquine]
cytopathic effects [1]: cytopathic effects of chloroquine were apparent

(K)16 GGCRGDMFGCA [Example 3]
improvement of expression by addition of chloroquine ([2]; 100 μM chloroquine vs no chloroquine): ~2 fold
optimal peptide-DNA transfection efficiency (luciferase activity, Relative Light Units per mg cellular protein) ([2]; absence of chloroquine, 48 hours expression, indirect comparison of FIG. 2 and FIG. 3): ~6×10^7 RLU/mg
